The source of these data is patent US8242167B2, “Mannose derivatives for killing tumor cells” (University of Miami, priority 2006, dated 2012).

One data set has as its system CHOP/GADD154. Briefly: Western blot of CHOP/GADD154 in SKBR3 cells. In kind it is cell-based, human. To be noted: SKBR3, normoxia, 24 hrs; 8 mM sugar analog. On the procedure: (§1) Western Blot analysis. Cells were plated at 10^4 cell cm^−2 and grown under drug treatment for the indicated times. At the end of the treatment period, cells were collected and lysed with 1% SDS in 80 mM Tris-HCL (ph 7.4) buffer supplemented with a proteinase inhibitor cocktail. DNA was fragmented by sonication and protein concentrations were measured by microBCA protein assay kit (Pierce, USA). Samples were mixed with 2× Laemmli sample buffer (Bio-Rad, USA) and run on a SDS-polyacrylamide gel. Gels were transferred to nitrocellulose membranes (Amersham, USA) and probed with anti-KDEL (Stressgen, Canada) (for Grp78 and Grp94); polyclonal anti-CHOP/[…] (Santa Cruz, USA), polyclonal anti-erbB2 (DAKO, USA). Following probing, membranes were washed and incubated with an HRP conjugated secondary antibody. Chemiluminesence was detected by exposure to film. Where indicated, membranes were stripped with Stripping Buffer (Pierce, USA) and reprobed with anti-actin (Sigma, USA) primary antibody. To analyze conconavalin A (ConA) binding, the membranes were incubated with 0.2 μg/ml HRP-conjugated ConA, and chemiluminescence was detected as described.

Data set [1] deals with SKBR3 cells. Briefly: Lactic acid assay in SKBR3 cells. In kind it is cell-based, human. Particulars: 2 mM, 24 hr, 2-FDG vs. 2-DG. As for the experimental part: Lactic acid assay. Lactic acid was measured by adding 0.025 ml of deproteinated medium, from treated or non-treated cultures, to a reaction mixture containing 0.1 ml of lactic acid dehydrogenase (1000 units/ml), 2 ml of glycine buffer (glycine, 0.6 mol/L, and hydrazine, pH 9.2), and 1.66 mg/ml NAD. Deproteinization occurred by treating 0.5 ml of medium from test cultures with 1 ml of perchloric acid at 8% w/v, vortexing for 30 s, then incubating this mixture at 4° C. for 5 min, and centrifuging at 1500 g for 10 min. The supernatant was centrifuged three times more, and 0.025 ml of a final clear supernatant was used for lactic acid determinations. Formation of NADH was measured with a Beckman DUr 520 UV/vis spectrophotometer at 340 nm, which directly corresponds to lactic acid levels as determined by a lactate standard curve.
Lactic acid assay. Lactic acid was measured by adding 0.025 ml of deproteinated medium, from treated or non-treated cultures, to a reaction mixture containing 0.1 ml of lactic dehydrogenase (1000 units/ml), 2 ml of glycine buffer (glycine, 0.6 mol/L, and hydrazine, pH 9.2), and 1.66 mg/ml NAD. […] Formation of NADH was measured with a Beckman DUr 520 UV/vis spectrophotometer at 340 nm, which directly corresponds to lactic acid levels as determined by a lactate standard curve.

For data set [2], the system named is SKBR3 cells. The data set can be described thus: Growth inhibitory and cytotoxicity assay in SKBR3 cells under normoxia. In kind it is cell-based, human. To be noted: for cytotoxicity measured by trypan blue exclusion: SKBR3, 72 hrs, normal oxygen conditions; for reversal of 2-DG toxicity by added sugar: SKBR3, 1 mM sugar with increasing 2-DG, trypan blue exclusion. On the procedure: Cytotoxicity assay and Rapid DNA Content Analysis. Cells were incubated for 24 hr at 37° C. in 5% CO2 at which time drug treatments began and were continued for 72 hr. At this time, attached cells were trypsinized and combined with their respective culture media followed by centrifugation at 400 g for 5 min. Pellets containing the cells were either resuspended in 1.5 ml of a medium/trypan blue mixture for cytotoxicity assays or propidium iodide/hypotonic citrate staining solution for determining the nuclear DNA content and cell cycle by a Coulter XL flow cytometer. A minimum of 10,000 cells were analyzed to generate a DNA distribution histogram.
(§2) Cytotoxicity assay. Cells were incubated for 24 hr at 37° C. in 5% CO2 at which time drug treatments began and continued for 72 hr. At this time, attached cells were trypsinized and combined with their respective culture media followed by centrifugation at 400 g for 5 min. The pellets were resuspended in 1 ml of Hanks solution and analyzed by Vi-Cell (Beckman Coulter, USA) cell viability analyzer.

The next data set deals with fowl plague virus. To be noted: chick embryo fibroblasts infected with fowl plague virus; cited from earlier work.
In another data set the test system is tumor cell lines. Briefly: Toxicity survey of tumor cell lines under normoxic conditions. In kind it is cell-based. To be noted: for tumor cell lines undergoing significant cell death: 6 mM, normal oxygen tension; for toxicity to select tumor cell types: normoxia. On the procedure:
(§3) Cell types. The Δ^0 cells were isolated by treating osteosarcoma cell line 143B (wt) with ethidium bromide for prolonged periods, as previously described (9). Because the Δ^0 cells are uridine and pyruvate auxotrophs, they were grown in DMEM (GIBCO, USA) supplemented with 10% fetal calf serum, 50 μg/ml of uridine and 100 mM sodium pyruvate. The SKBR3 cell line was obtained from Dr. Joseph Rosenblatt's laboratory at the University of Miami. The pancreatic cancer cell lines 1420 and 1469, the ovarian cancer cell line SKOV3, the cervical cancer cell line HELA, and the osteosarcoma cell line 143B were purchased from ATCC. The non-small cell lung cancer and small cell lung cancer cell lines were derived from patients by Dr. Niramol Savaraj at the University of Miami. SKBR3 and SKOV3 cells were grown in McCoy's 5A medium; 1420, 1469 and 143B were grown in DMEM (GIBCO, USA); and HELA was grown in MEM (GIBCO, USA). The media was supplemented with 10% fetal bovine serum. All cells were grown under 5% CO2 and 37° C.
as §2

Data set [3] deals with glycoproteins (ConA binding) in SKBR3 cells. The data set can be described thus: HRP-conjugated ConA blot of SKBR3 cell extracts. Type of data set: cell-based, human. To be noted: SKBR3, 48 hr, 8 mM sugar analog. On the procedure: as §1
The subject of another data set is erbB2. Briefly: Western blot of erbB2 in SKBR3 cells. In kind it is cell-based, human. As for the experimental part:
as §1
A general note: A western blot detects proteins with antibodies after separation by electrophoresis.

For data set [4], the system named is Grp78 and Grp94. Briefly: Western blot of Grp78 and Grp94 (unfolded protein response) in SKBR3 cells under normoxia. To be noted: for expression of chaperones Grp78 and Grp94: SKBR3, normoxia, 24 hrs, 8 mM sugar analog, tunicamycin 1 micro g/ml; for up-regulation of GRP 78 and 94, dose dependence: select tumor cells, normoxic conditions. Type of data set: cell-based, human. On the procedure:
as §1

The test system of data set [5] is SKBR3 cells. The data set can be described thus: Cytotoxicity in SKBR3 cells under hypoxic conditions. Type of data set: cell-based, human. To be noted: 2-FDG vs. 2-DG. On the procedure:
as §2, with “Hypoxia. For studies in hypoxic conditions (Model C), cells were seeded and incubated for 24 hr at 37° C. and 5% CO2 as described below for direct cytotoxicity assays. After the 24 hr incubation, cells received drug treatment and were placed in a Pro-Ox in vitro chamber attached to a model 110 oxygen controller ([…] Bioinstruments Co. […] Cytotoxicity” for “Cytotoxicity”

The subject of data set [6] is SKBR3 cells. The data set can be described thus: ATP quantification assay in SKBR3 cells. To be noted: 6 hours, 2-FDG vs. 2-DG. In kind it is cell-based, human. As for the experimental part:
ATP quantitation assay. The ATP lite kit (Perkin Elmer) can be used to quantify levels of ATP. About 50 μL of cell lysis solution were added to 100 μL of cell suspension in a white-bottom 96-well plate. The plate was incubated at room temperature on a shaker (700 rpm) for five minutes. 50 μL of substrate solution was then added to the wells and shaken (700 rpm) for another five minutes at room temperature. The plate was then dark adapted for ten minutes and measured for luminescence.
ATP quantification assay. The ATP lite kit (Perkin Elmer) can be used to quantify levels of ATP. About […] of cell lysis solution were added to […] of cell suspension in a white-bottom 96-well plate. The plate was incubated at room temperature on a shaker (700 rpm) for five minutes. About […] solution were then added to the wells and shaken (700 rpm) for another five minutes at room temperature. The plate was then dark adapted for ten minutes and measured for luminescence. To normalize the reduction of ATP production to growth inhibition which results due to treatment with 2-DG or 2-FDG, parallel experiments were run to measure the total protein concentration using a microBCA protein detection kit (Pierce, Rockford, Ill.).

In data set [7] the test system is Grp78 and Grp94. Briefly: Western blot of Grp78 and Grp94 in models of hypoxia A, B & C. In kind it is cell-based. As for the experimental part:
as §1
Three in vitro models of hypoxia. We previously characterized three models of anaerobiosis as follows: Model A are tumor cells treated with 0.05 μg/ml of oligomycin (a mitochondrial inhibitor of ATP synthase); Model B are cells that are deficient in mitochondrial DNA and Model C are cells treated in an hypoxic (0.5% O^2) chamber (Reming Bioinstruments, Redfield, N.Y.).

For another data set, the system named is 1420, pancreatic cancer. Briefly: Cytotoxicity under normoxia, 1420. Particulars: 1420; 1 mM sugar with increasing 2-DG; trypan blue exclusion. Type of data set: cell-based, human. On the procedure:
as §3, §2

Regarding `O=C[C@H](F)[C@@H](O)[C@H](O)[C@H](O)CO` [2-FDG, 2-deoxy-2-fluoro-glucose, reference compound], the “induction of GADD154/CHOP” value in the data set with CHOP/GADD154 was “not”. Also, in the data set with SKBR3 cells [1], the “inhibition of lactate levels (a measure of glycolysis)” value was “inhibited lactate levels (a measure of glycolysis) better than the latter”. For the same compound, the “cytotoxicity measured by trypan blue exclusion” value (“cytotoxicity measured” for short) in the data set with SKBR3 cells [2] is listed as “is not”. In addition, in the data set with SKBR3 cells [2] (normoxia), the “rank order in growth inhibiting and killing SKBR3 cells” value was 2-DG>2-FDM>>>2-FDG; the “toxicity to SKBR3 cells grown under normoxia (FIG. 1)” value is “neither of these agents caused toxicity”. Moreover, in the data set on fowl plague virus, the “order of potency to inhibit viral glycoprotein synthesis” value is recorded as 2-DG>2-FDM>2-FDG. For the same compound, in the data set with tumor cell lines, the “tumor cell lines undergoing significant cell death” value is listed as “not” and the “toxicity to select tumor cell types” value is “not”. In addition, in the data set on tumor cell lines (normoxic conditions), the “toxicity to cell types that are sensitive to 2-DG” value is listed as “shows no toxicity”. For the same compound, the “ConA binding of glycoproteins” value in data set [3] is given as “no reduction in ConA binding”. Also, the “molecular weight of erbB2” value with erbB2 is “had no effect”. In the data set with Grp78 and Grp94 [4], the “expression of chaperones Grp78 and Grp94” value is recorded as “does not increase the levels of these chaperones as much as 2-DG or 2-FDM”; the “up-regulation of GRP 78 and 94, dose dependence” value is “not”. Also, the “toxicity under hypoxic conditions” value with SKBR3 cells [5] is “more toxic than 2-DG”. Besides, the ATP depletion entry with SKBR3 cells [6] was “ATP depletion was more prominent”.

Take `O=C[C@@H](F)[C@@H](O)[C@H](O)[C@H](O)CO` [2-FDM, 2-deoxy-2-fluoro-mannose]: the “induction of GADD154/CHOP” value in the data set on CHOP/GADD154 is listed as “induced”. Besides, the “cytotoxicity measured” value in the data set with SKBR3 cells [2] is reported as “toxic”. In the data set on SKBR3 cells [2] (normoxia), the “rank order in growth inhibiting and killing SKBR3 cells” value is reported as 2-DG>2-FDM>>>2-FDG. Moreover, the “order of potency to inhibit viral glycoprotein synthesis” value with fowl plague virus was 2-DG>2-FDM>2-FDG. Also, the “upregulation of the UPR (Grp78, Grp94)” value in the data set on Grp78 and Grp94 [7] (hypoxia model C) is reported as “both chaperones are upregulated”. Also, in the data set with Grp78 and Grp94 [7] (hypoxia models A and B), the “upregulation of the UPR (Grp78, Grp94)” value was “no significant upregulation of the UPR”. For the same compound, in the data set on tumor cell lines (4 mM), the “toxicity in 2-DG sensitive and 2-DG resistant cell types” value was “caused toxicity in 2-DG sensitive but not 2-DG resistant cell types”. In addition, in the data set on tumor cell lines, the “tumor cell lines undergoing significant cell death” value is 6 out of 15 and the “toxicity to select tumor cell types” value is on record as “toxic to select tumor cell types growing under normoxia”. Moreover, in data set [3], the “ConA binding of glycoproteins” value was “decrease ConA binding”. In the data set with erbB2, the “molecular weight of erbB2” value is “decreased the molecular weight of erbB2”. In addition, in the data set on Grp78 and Grp94 [4], the “expression of chaperones Grp78 and Grp94” value was “both Grp78 and Grp94 are upregulated”; the “up-regulation of GRP 78 and 94, dose dependence” value was “up-regulated by 2-DG and 2-FM in a dose-dependent manner”.

With tunicamycin [reference compound], the “induction of GADD154/CHOP” value in the data set with CHOP/GADD154 is “induced”. In addition, the “synthesis of chaperones Grp78 and Grp94” value with Grp78 and Grp94 [7] (all three hypoxia models (positive control)) was “induce the synthesis of these chaperones in all three models”. Besides, the “ConA binding of glycoproteins” value in data set [3] is reported as “decrease ConA binding”. For the same compound, in the data set with Grp78 and Grp94 [4], the “expression of chaperones Grp78 and Grp94” value was “both Grp78 and Grp94 are upregulated”.

As for `O=C(CO)[C@@H](O)[C@H](O)[C@H](O)CO` [fructose, reference compound], the “reversal of 2-DG toxicity by added sugar” value is “had no effect” with SKBR3 cells [2] and “had no effect” with 1420, pancreatic cancer.

As to `C[C@H](O)[C@@H](O)[C@@H](O)[C@H](O)C=O` [fucose, reference compound], the “reversal of 2-DG toxicity by added sugar” value was “had no effect” in the data set with SKBR3 cells [2] and “had no effect” in the data set on 1420, pancreatic cancer.

In the case of `O=C[C@@H](Cl)[C@@H](O)[C@H](O)[C@H](O)CO` [2-CM, 2-deoxy-2-chloro-mannose], the “toxicity to select tumor cell types” value with tumor cell lines was “toxic to select tumor cell types growing under normoxia”.

In the case of `NC(=O)C(=O)O` [oxamate, reference compound], the “cytotoxicity measured” value in the data set on SKBR3 cells [2] is “not toxic”.
